Reference: patent publication US11524966B1 (Valo Early Discovery, Inc., priority 2017, dated 2022)

Target: T1, USP25 (USP25-His6, Boston Biochem E-546) (Homo sapiens, UniProt Q9UHP3)
T1 construct: His6; purchased Boston Biochem E-546
T1 sequence (Q9UHP3 1-1055): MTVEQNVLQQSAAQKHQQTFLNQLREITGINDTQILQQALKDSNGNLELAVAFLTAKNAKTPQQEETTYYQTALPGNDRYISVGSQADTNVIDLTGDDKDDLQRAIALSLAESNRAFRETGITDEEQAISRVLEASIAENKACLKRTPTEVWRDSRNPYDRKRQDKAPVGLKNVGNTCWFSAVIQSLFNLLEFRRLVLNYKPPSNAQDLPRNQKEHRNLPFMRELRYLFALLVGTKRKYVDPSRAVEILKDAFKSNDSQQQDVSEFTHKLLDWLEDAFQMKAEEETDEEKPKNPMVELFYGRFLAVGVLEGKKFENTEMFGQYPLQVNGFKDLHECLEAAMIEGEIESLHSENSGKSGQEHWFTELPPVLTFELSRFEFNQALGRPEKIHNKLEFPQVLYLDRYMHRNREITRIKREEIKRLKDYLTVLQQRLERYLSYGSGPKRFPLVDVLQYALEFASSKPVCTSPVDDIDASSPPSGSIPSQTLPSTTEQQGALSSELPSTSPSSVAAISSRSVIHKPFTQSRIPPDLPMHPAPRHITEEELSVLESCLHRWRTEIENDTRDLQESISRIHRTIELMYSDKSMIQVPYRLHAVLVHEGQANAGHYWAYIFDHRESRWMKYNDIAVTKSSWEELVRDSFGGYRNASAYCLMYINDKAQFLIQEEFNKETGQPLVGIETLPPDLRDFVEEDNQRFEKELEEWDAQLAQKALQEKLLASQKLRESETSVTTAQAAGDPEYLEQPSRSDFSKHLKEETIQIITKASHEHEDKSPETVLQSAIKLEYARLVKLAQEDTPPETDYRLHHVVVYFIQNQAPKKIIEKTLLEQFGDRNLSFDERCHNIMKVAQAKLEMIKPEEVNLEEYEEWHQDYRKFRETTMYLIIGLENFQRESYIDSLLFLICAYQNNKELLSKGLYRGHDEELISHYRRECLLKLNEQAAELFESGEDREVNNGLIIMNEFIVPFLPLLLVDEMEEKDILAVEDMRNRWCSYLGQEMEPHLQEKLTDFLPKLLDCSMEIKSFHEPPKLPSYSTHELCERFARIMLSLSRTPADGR
Test: Ubiquitin-Rhodamine 110 Assay for USP25 Activity, Example A-2
Format: biochemical
Conditions: Ubiquitin-Rhodamine 110 assay, Example A-2; read-out: USP25 A-2 IC50 range
Method in brief: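 Inhibition is quantified as IC50 by 4-parameter fit of fluorescence (485/535 nm) from Ub-Rh110 hydrolysis. Enzyme USP25-His6 at 75 pM with 30 min compound preincubation, then 25 nM substrate for 45 min at room temperature in pH 8.0 Tris buffer containing BME.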

Row | Compound | IC50
1 | Cc1cc(C)c2c(N)c(C(=O)N[C@H]3COc4cc(N5CC[C@@H]6CNC[C@@H]65)ccc4C3)sc2n1 [Example 227, N-[(3R)-7-[(3aR,6aR)-octahydropyrrolo[2,3-c]pyrrol-1-yl]-3,4-dihydro-2H-1-benzopyran-3-yl]-3-amino-4,6-dimethylthieno[2,3-b]pyridine-2-carboxamide] | 0.05 to 0.2 µM
2 | N#Cc1c(N2CC3CCC(C2)N3)cc(F)c2c1OC[C@H](NC(=O)c1cnc3c(c1)[C@@H]1C[C@@H]1CN3)C2 [Example 228, (6aS,7aR)-N-[(3R)-8-cyano-7-{3,8-diazabicyclo[3.2.1]octan-3-yl}-5-fluoro-3,4-dihydro-2H-1-benzopyran-3-yl]-5H,6H,6aH,7H,7aH-cyclopropa[c]1,8-naphthyridine-2-carboxamide] | 0.2 to 2 µM
3 | N#Cc1c(N2CC3CCC(C2)N3)cc(F)c2c1OC[C@H](NC(=O)c1cnc3c(c1)[C@H]1C[C@H]1CN3)C2 [Example 229, (6aR,7aS)-N-[(3R)-8-cyano-7-{3,8-diazabicyclo[3.2.1]octan-3-yl}-5-fluoro-3,4-dihydro-2H-1-benzopyran-3-yl]-5H,6H,6aH,7H,7aH-cyclopropa[c]1,8-naphthyridine-2-carboxamide] | > 2 µM
4 | Cc1cc(C)c2c(N)c(C(=O)N[C@H]3COc4c(C#N)c(N5CC6CCC(C5)N6)cc(F)c4C3)sc2n1 [Example 230, 3-amino-N-[(3R)-8-cyano-7-{3,8-diazabicyclo[3.2.1]octan-3-yl}-5-fluoro-3,4-dihydro-2H-1-benzopyran-3-yl]-4,6-dimethylthieno[2,3-b]pyridine-2-carboxamide] | 0.2 to 2 µM
5 | Cc1ccc2c(N)c(C(=O)N[C@H]3COc4cc(N5CC[C@H]6CC[C@@H](N)C[C@H]65)ccc4C3)sc2n1 [Example 231, N-[(3R)-7-[(3aR,6R,7aR)-6-amino-octahydro-1H-indol-1-yl]-3,4-dihydro-2H-1-benzopyran-3-yl]-3-amino-6-methylthieno[2,3-b]pyridine-2-carboxamide] | 0.001 to 0.05 µM
6 | Cc1ccc2c(N)c(C(=O)N[C@H]3COc4cc(N5CC[C@H]6CC[C@H](N)C[C@H]65)ccc4C3)sc2n1 [Example 232, N-[(3R)-7-[(3aR,6S,7aR)-6-amino-octahydro-1H-indol-1-yl]-3,4-dihydro-2H-1-benzopyran-3-yl]-3-amino-6-methylthieno[2,3-b]pyridine-2-carboxamide] | 0.05 to 0.2 µM
7 | Cc1ccc2c(N)c(C(=O)N[C@H]3COc4cc(N5CC[C@@H]6CC[C@@H](N)C[C@@H]65)ccc4C3)sc2n1 [Example 233, N-[(3R)-7-[(3aS,6R,7aS)-6-amino-octahydro-1H-indol-1-yl]-3,4-dihydro-2H-1-benzopyran-3-yl]-3-amino-6-methylthieno[2,3-b]pyridine-2-carboxamide] | 0.001 to 0.05 µM
8 | Cc1ccc2c(N)c(C(=O)N[C@H]3COc4cc(N5CC[C@@H]6CC[C@H](N)C[C@@H]65)ccc4C3)sc2n1 [Example 234, N-[(3R)-7-[(3aS,6S,7aS)-6-amino-octahydro-1H-indol-1-yl]-3,4-dihydro-2H-1-benzopyran-3-yl]-3-amino-6-methylthieno[2,3-b]pyridine-2-carboxamide] | 0.05 to 0.2 µM
9 | Cc1ccc2c(N)c(C(=O)N[C@H]3COc4cc(N5CC[C@H]6CNCC[C@H]65)ccc4C3)sc2n1 [Example 235, N-[(3R)-7-[(3aS,7aR)-octahydro-1H-pyrrolo[3,2-c]pyridin-1-yl]-3,4-dihydro-2H-1-benzopyran-3-yl]-3-amino-6-methylthieno[2,3-b]pyridine-2-carboxamide] | 0.05 to 0.2 µM
10 | Cc1ccc2c(N)c(C(=O)N[C@H]3COc4cc(N5CC[C@@H]6CNCC[C@@H]65)ccc4C3)sc2n1 [Example 236, N-[(3R)-7-[(3aR,7aS)-octahydro-1H-pyrrolo[3,2-c]pyridin-1-yl]-3,4-dihydro-2H-1-benzopyran-3-yl]-3-amino-6-methylthieno[2,3-b]pyridine-2-carboxamide] | 0.05 to 0.2 µM
11 | Cc1ccc2c(N)c(C(=O)N[C@H]3COc4cc(N5C[C@@H]6NCCC(F)(F)[C@@H]6C5)ccc4C3)sc2n1 [Example 237, N-[(3R)-7-[(4aR,7aR)-4,4-difluoro-octahydro-1H-pyrrolo[3,4-b]pyridin-6-yl]-3,4-dihydro-2H-1-benzopyran-3-yl]-3-amino-6-methylthieno[2,3-b]pyridine-2-carboxamide] | 0.2 to 2 µM
12 | Cc1ccc2c(N)c(C(=O)N[C@H]3COc4cc(N5C[C@H]6NCCC(F)(F)[C@H]6C5)ccc4C3)sc2n1 [Example 238, N-[(3R)-7-[(4aS,7aS)-4,4-difluoro-octahydro-1H-pyrrolo[3,4-b]pyridin-6-yl]-3,4-dihydro-2H-1-benzopyran-3-yl]-3-amino-6-methylthieno[2,3-b]pyridine-2-carboxamide] | 0.2 to 2 µM
13 | CO[C@H]1CN(c2ccc3c(n2)CC[C@H](NC(=O)c2sc4nc(C)ccc4c2N)C3)C[C@]1(C)N [Example 239, 3-amino-N-[(6S)-2-[(3S,4S)-3-amino-4-methoxy-3-methylpyrrolidin-1-yl]-5,6,7,8-tetrahydroquinolin-6-yl]-6-methylthieno[2,3-b]pyridine-2-carboxamide] | > 2 µM
14 | CO[C@@H]1CN(c2ccc3c(n2)CC[C@H](NC(=O)c2sc4nc(C)ccc4c2N)C3)C[C@@]1(C)N [Example 240, 3-amino-N-[(6S)-2-[(3R,4R)-3-amino-4-methoxy-3-methylpyrrolidin-1-yl]-5,6,7,8-tetrahydroquinolin-6-yl]-6-methylthieno[2,3-b]pyridine-2-carboxamide] | > 2 µM
15 | Cc1cc(C)c2c(N)c(C(=O)N[C@H]3COc4cc(N5CC6CCC(C5)N6)c(C#N)c(F)c4C3)sc2n1 [Example 241, 3-amino-N-[(3R)-6-cyano-7-{3,8-diazabicyclo[3.2.1]octan-3-yl}-5-fluoro-3,4-dihydro-2H-1-benzopyran-3-yl]-4,6-dimethylthieno[2,3-b]pyridine-2-carboxamide] | 0.001 to 0.05 µM
16 | Cc1ccc2c(N)c(C(=O)N[C@H]3COc4cc(N5CCC[C@@H]6CNC[C@@H]65)ccc4C3)sc2n1 [Example 242, N-[(3R)-7-[(4aR,7aR)-octahydro-1H-pyrrolo[3,4-b]pyridin-1-yl]-3 ,4-dihydro-2H-1-benzopyran-3-yl]-3-amino-6-methylthieno[2,3-b]pyridine-2-carboxamide] | 0.05 to 0.2 µM
17 | Cc1ccc2c(N)c(C(=O)N[C@H]3COc4cc(N5CCC[C@H]6CNC[C@H]65)ccc4C3)sc2n1 [Example 243, N-[(3R)-7-[(4aS,7aS)-octahydro-1H-pyrrolo[3,4-b]pyridin-1-yl]-3,4-dihydro-2H-1-benzopyran-3-yl]-3-amino-6-methylthieno[2,3-b]pyridine-2-carboxamide] | 0.001 to 0.05 µM
18 | Cc1ccc2c(N)c(C(=O)N[C@H]3COc4cc(N5C[C@H](N)CC[C@@H]5C(F)(F)F)ccc4C3)sc2n1 [Example 244, 3-amino-N-[(3R)-7-[(2R,5R)-5-amino-2-(trifluoromethyl)piperidin-1-yl]-3,4-dihydro-2H-1-benzopyran-3-yl]-6-methylthieno[2,3-b]pyridine-2-carboxamide] | 0.001 to 0.05 µM
19 | Cc1ccc2c(N)c(C(=O)N[C@H]3COc4cc(N5C[C@@H](N)CC[C@H]5C(F)(F)F)ccc4C3)sc2n1 [Example 245, 3-amino-N-[(3R)-7-[(2S,5S)-5-amino-2-(trifluoromethyl)piperidin-1-yl]-3,4-dihydro-2H-1-benzopyran-3-yl]-6-methylthieno[2,3-b]pyridine-2-carboxamide] | 0.05 to 0.2 µM
20 | Cc1ccc2c(N)c(C(=O)N[C@H]3COc4cc(N5C[C@@H](N)CC[C@@H]5C(F)(F)F)ccc4C3)sc2n1 [Example 246, 3-amino-N-[(3R)-7-[(2R,5S)-5-amino-2-(trifluoromethyl)piperidin-1-yl]-3,4-dihydro-2H-1-benzopyran-3-yl]-6-methylthieno[2,3-b]pyridine-2-carboxamide] | 0.001 to 0.05 µM
21 | Cc1ccc2c(N)c(C(=O)N[C@H]3COc4cc(N5C[C@H](N)CC[C@H]5C(F)(F)F)ccc4C3)sc2n1 [Example 247, 3-amino-N-[(3R)-7-[(2S,5R)-5-amino-2-(trifluoromethyl)piperidin-1-yl]-3,4-dihydro-2H-1-benzopyran-3-yl]-6-methylthieno[2,3-b]pyridine-2-carboxamide] | 0.05 to 0.2 µM
